{"source": "patent US20110191897A1", "about": "“Plants Tolerant to HPPD Inhibitor Herbicides” (Bayer CropScience AG, priority 2009, published 2011)", "key": {"[1]": {"molecular_target": "T1, Arabidopsis thaliana HPPD (SEQ ID No. 10) (Arabidopsis thaliana, UniProt P93836)", "T1 construct": "made in house; host or cells: E. coli K-12 BL21 (pQE30-AtHPPD)", "T1 sequence (P93836 with tags, fused parts or gaps)": "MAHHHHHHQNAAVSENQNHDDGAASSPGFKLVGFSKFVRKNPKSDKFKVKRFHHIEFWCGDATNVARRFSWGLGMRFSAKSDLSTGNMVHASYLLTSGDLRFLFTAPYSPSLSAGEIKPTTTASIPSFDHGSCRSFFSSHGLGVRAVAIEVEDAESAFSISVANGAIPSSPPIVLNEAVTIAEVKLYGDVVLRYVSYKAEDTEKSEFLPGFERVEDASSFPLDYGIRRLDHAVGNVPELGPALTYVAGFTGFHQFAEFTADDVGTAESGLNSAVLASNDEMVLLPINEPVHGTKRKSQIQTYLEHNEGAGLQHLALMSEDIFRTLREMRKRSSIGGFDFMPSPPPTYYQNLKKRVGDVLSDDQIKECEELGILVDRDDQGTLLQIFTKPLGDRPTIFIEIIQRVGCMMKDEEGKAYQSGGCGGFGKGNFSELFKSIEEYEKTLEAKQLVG", "experiment": "Spectrophotometric HPPD activity assay in presence of HPPD inhibitors", "format": "biochemical"}, "[2]": {"system": "tobacco calli containing HPPD SEQ ID No. 7 (Blepharisma japonicum)", "experiment": "Rooting of transformed tobacco calli on tembotrione media", "format": "cell-based, Nicotiana tabacum", "settings": "6 to 12 weeks", "description": "The leaf disks were co-cultivated for 2 days with Agrobacterium tumefaciens cells containing either the binary vector FMP37ebv or AtHPPDbv. Then the leaf disks were transferred to a media allowing the regeneration of shoots for 6 weeks on MS (Musharige and Skoog, (1962), Physiol Plant 15(3): 473-497) media supplemented with BAP (1 mg/mL; Benzylaminopurine), carbenicillin (250 mg/mL), cefotaxine (250 mg/mL), kanamycin (75 mg/mL) and tembotrione (10^−6 M)\nRegenerated calli were transferred on media to induce the development of roots for 6 to 12 weeks: MS (½), supplemented with carbenicillin (250 mg/mL), cefotaxine (250 mg/mL), kanamycin (75 mg/mL), and tembotrione (10^−6 M).\nRegenerated shoot calli from a cell transformed with a nucleic acid sequence encoding an HPPD comprising SEQ ID No. 11 (Arabidopsis thaliana) or SEQ ID No. 7 (Blepharisma japonicum) were transferred to a media inducing rot growth which media was further supplemented with the HPPD inhibitor tembotrione for 6 to 12 weeks."}, "[3]": {"system": "rice shoots transformed with FMP37e", "experiment": "Bleaching of transformed rice shoots on MS/2 with tembotrione", "format": "in vivo", "settings": "2 weeks", "description": "Rice transformation is achieved using methods well known in the art. Briefly, the Agrobacterium tumefaciens mediated transformation of rice was performed using immature embryos, from the restorer line 6G4317. Briefly, panicles from donor plants were harvested 8-12 days after pollination. The lemma of the immature seed was removed. Seeds were thereafter sterilized using a NaOCl based solution and Tween. The seeds were preinduced with acetylsalicylic acid. Agrobacterium tumefaciens cells were then co-cultivated with the preinduced seeds in presence of acetosyringone for 4 days at 24° C. in the dark. Thereafter, coleoptile from embryos were removed and washed, then put on a media supplemented with phosphinothricin for 3 weeks at 28° C. under a photoperiod rhythm of 16 hours. Then the growing calli were cut off from the embryos, and transferred to fresh media containing triacillin, phosphinothricin, L-proline and copper (II) sulfate.\nFor each callusline and per Tembotrione concentration, 3 shoots, and randomly isolated from different callus pieces, were transferred to MS/2 with Tembotrione. As a general rule, transfer of the shoots from regeneration medium to MS/2 occurred 9 weeks after calli had been put on regeneration medium.\nCultures were incubated at 26.5° C. (16 hrs. photoperiod) and evaluation of symptoms occurred 2 weeks later.\nNew developing leaves of the shoots transferred have been scored on the basis of bleaching and categorized in 3 groups:\na) no bleaching b) intermediate bleaching c) complete bleaching\nWithin the category ‘intermediate bleaching’ a distinction has been made between shoots having new leaves showing only very little bleaching symptoms and thus tending to green leaves, and shoots with new leaves almost completely bleached."}, "[4]": {"system": "tobacco plants with FMP37t-h, PAT and 2mEPSPS (pFCO112)", "experiment": "Glasshouse trial of tobacco with three tolerance genes", "format": "in vivo, Nicotiana tobacum", "settings": "9 DAT", "description": "A binary vector for tobacco transformation is, for example, constructed with the CaMV35 promoter driving the expression of the gene FMP37t-h (SEQ ID No. 15), with a codon usage optimized for the expression in dicotyledoneous plants and at its 5′ extremity was added a sequence coding for an OTP, and further upstream a sequence TEV (Tobacco etch virus) to improve the stability of the mRNA in plants followed by the CaMV35S terminator. The nucleotide sequence of the gene FMP37t-h is given in SEQ ID No. 15. Additionally, the transformation vector also contains a PAT gene cassette in which the gene is driven by a CaVM35S promoter and followed by a CaMV35S terminator for glufosinate based selection during the transformation process and a 2mEPSPS gene cassette in which the gene is driven by an histone promoter from Arabidopsis to confer tolerance to the herbicide glyphosate to the transformed plants (see FIG. 3 H). The binary vector was called pFCO112. The above vector was used to transform leaf disks obtained from Nicotiana tobacum plants, according to Example 3.\nTransgenic tobacco plants were transferred to the greenhouse and treated with glyphosate at a rate of 1121 g Al/ha. Seeds were produced from such tolerant tobacco plants and harvested. These seeds were put on soil to germinate in the glasshouse. Three to four weeks later, 50 plantlets per event were transferred to single pots. Two weeks later, plants of a size 4-6 cm were sprayed either with:\n[…] […] Non-transgenic tobacco plants were completely killed by treatment using one or more of the above herbicides."}}}
{"smiles": "CS(=O)(=O)c1ccc(C(=O)C2C(=O)CCCC2=O)c(Cl)c1COCC(F)(F)F", "note": "[Tembotrione, 2-[2-chloro-4-(methylsulfonyl)-3-[(2,2,2,-tri-fluoroethoxy)methyl]benzoyl]-1,3-cyclo-hexanedione]", "values": [{"measurement": "IC50", "setting": "[1]", "value": "< 2510", "unit": "nM"}, {"measurement": "% Inhibition", "setting": "[1]; 1.0E−05 M", "value": 97, "unit": "%"}, {"measurement": "% Inhibition", "setting": "[1]; 2.5E−04 M", "value": 97, "unit": "%"}, {"measurement": "% Inhibition", "setting": "[1]; 2.5E−05 M", "value": 93, "unit": "%"}, {"measurement": "% Inhibition", "setting": "[1]; 2.5E−06 M", "value": 82, "unit": "%"}, {"measurement": "% Inhibition", "setting": "[1]; 5.0E−06 M", "value": 90, "unit": "%"}, {"measurement": "inhibition at 5 µM", "setting": "[1]; 5.0 × 10^−6M inhibitor (Table 4), read-out: percentage of inhibition", "value": 92, "unit": "%"}, {"measurement": "% Inhibition", "setting": "[1]; 6.3E−05 M", "value": 97, "unit": "%"}, {"measurement": "% Elongation & rooting on 10^−6M tembotrione", "setting": "[2]", "value": 65, "unit": "%"}, {"measurement": "N° of shoots completely bleached", "setting": "[3]; 1 μM", "value": 17}, {"measurement": "N° of shoots with intermediate bleaching", "setting": "[3]; 1 μM", "value": 24}, {"measurement": "N° of shoots completely bleached", "setting": "[3]; 5 μM", "value": 43}, {"measurement": "N° of shoots with intermediate bleaching", "setting": "[3]; 5 μM", "value": 17}, {"measurement": "number of plants in Class I (no injuries)", "setting": "[4]; line 634, 100 g AI/ha", "value": 0}, {"measurement": "number of plants in Class II (injury: 10-40%)", "setting": "[4]; line 634, 100 g AI/ha", "value": 3}, {"measurement": "number of plants in Class III (injury: 41-100%)", "setting": "[4]; line 634, 100 g AI/ha", "value": 7}, {"measurement": "number of plants in Class I (no injuries)", "setting": "[4]; line 713, 100 g AI/ha", "value": 0}, {"measurement": "number of plants in Class II (injury: 10-40%)", "setting": "[4]; line 713, 100 g AI/ha", "value": 6}, {"measurement": "number of plants in Class III (injury: 41-100%)", "setting": "[4]; line 713, 100 g AI/ha", "value": 4}]}
